The results in this text go back to ChEMBL document CHEMBL1201862, “PubChem BioAssay data set” (2004).

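Each compound was tested at five concentrations against cells in 96-well plates for 48 hours. Abbreviation: GI50, concentration required for 50% inhibition of growth.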 Activity calls are given as the source filed them. No stated cut-off is given here; in the data, active = GI50 up to about 1.1 µM and inactive = higher.

Experiment in all cases: DTP human tumour cell line panel, 48 h
The subject of assay [1] is TK-10.
The test system of assay [2] is NCI-H522.
In assay [3] the test system is SW-620.
Assay [4] has as its system OVCAR-4.
The subject of assay [5] is HCC 2998.
Assay [6] concerns SK-MEL-2.
Assay [7] deals with A498.
For assay [8], the system named is SR.
Assay [9] concerns MCF7.
In assay [10] the test system is KM12.
Assay [11] deals with UO-31.
Assay [12] relates to MOLT-4.
In assay [13] the test system is M14.
Assay [14] concerns LOX IMVI.
Assay [15] concerns SN12C.
The test system of assay [16] is IGROV-1.
Assay [17] concerns CCRF-CEM.
Assay [18] relates to NCI/ADR-RES.
The test system of assay [19] is SF-539.
In assay [20] the test system is NCI-H460.

Usually GI50 stands for the concentration that inhibits growth by half. Turning to `COC(=O)c1ccc2cc(O)ccc2c1`, the GI50 in [1] is > 100 µM (inactive); in assay [2] it was 58.6 µM (inactive); in assay [3] it was > 100 µM (inactive); in [4], > 100 µM (inactive); in assay [5], > 100 µM (inactive); in assay [6], > 100 µM (inactive). The GI50 in [7] is 38.5 µM (inactive); in assay [8], 22 µM (inactive); in [9], 55 µM (inactive); in assay [10], 39.9 µM (inactive); in [11], 32.4 µM (inactive); in assay [12], 25.2 µM (inactive). For the same molecule, the GI50 in assay [13] is 72.1 µM (inactive); in [14] it was 55.6 µM (inactive); in assay [15], > 100 µM (inactive); in [16], 75.7 µM (inactive); in assay [17], > 100 µM (inactive); in assay [18], 47.9 µM (inactive). Further, the GI50 in [19] was 89.3 µM (inactive).
Take `CCOc1cc(/C=N/c2nc3cc4sc(/N=C/c5ccc(O)c(OCC)c5)nc4cc3s2)ccc1O`: the GI50 in assay [1] was > 100 µM (inactive); in assay [2], 50.4 µM (inactive); in assay [3], 38.7 µM (inactive); in assay [4], > 100 µM (inactive); in [5] it was > 100 µM (inactive); in [6], > 100 µM (inactive). Also, the GI50 in assay [7] is > 100 µM (inactive); in assay [8], 12.9 µM (inactive); in [9], 82 µM (inactive); in assay [10], > 100 µM (inactive); in [11], > 100 µM (inactive); in assay [12], 30.8 µM (inactive). In addition, the GI50 is > 100 µM (inactive) in assay [13]; 55.8 µM (inactive) in assay [14]; 76.7 µM (inactive) in [15]; > 100 µM (inactive) in assay [16]; > 100 µM (inactive) in assay [18]; 20.4 µM (inactive) in assay [20]. Moreover, in assay [19], the GI50 was 20.7 µM (inactive).
`COc1ccc2c(c1)CCN1CCCc3ccccc3C21` (configuration not stated): the GI50 in assay [1] is > 100 µM (inactive); in [2], 34.4 µM (inactive); in assay [3] it was 52 µM (inactive); in assay [4], > 100 µM (inactive); in assay [5], 23 µM (inactive); in [6], 46.3 µM (inactive). Also, the GI50 was > 100 µM (inactive) in assay [7]; 31.8 µM (inactive) in assay [8]; 25.4 µM (inactive) in assay [9]; 33.7 µM (inactive) in assay [10]; 29.4 µM (inactive) in assay [11]; 32.1 µM (inactive) in [12]. Moreover, the GI50 was 15.9 µM (inactive) in assay [13]; 22.4 µM (inactive) in assay [14]; 42.7 µM (inactive) in assay [15]; 47.6 µM (inactive) in assay [16]; 37.5 µM (inactive) in assay [17]; 41.3 µM (inactive) in [18]. Besides, the GI50 in assay [19] is 17.5 µM (inactive).
Take `CC(C)[Si](CC1=CCCCC12C(=O)N(COCC[Si](C)(C)C)c1ccccc12)(C(C)C)C(C)C` (configuration not stated): the GI50 in assay [1] was > 100 µM (inactive); in assay [2] it was 41.8 µM (inactive); in assay [3], > 100 µM (inactive); in assay [4], > 100 µM (inactive); in assay [5], 65.6 µM (inactive); in [6] it was > 100 µM (inactive). Also, the GI50 in [7] was > 100 µM (inactive); in assay [8], > 100 µM (inactive); in [9], 61 µM (inactive); in assay [10], > 100 µM (inactive); in [11], > 100 µM (inactive); in [12], > 100 µM (inactive). For the same molecule, the GI50 in [13] is > 100 µM (inactive); in [14] it was 29.2 µM (inactive); in assay [16] it was > 100 µM (inactive); in [17] it was 0.448 µM (active); in [18], > 100 µM (inactive); in assay [20], 82.2 µM (inactive). Moreover, in [19], the GI50 was 73.1 µM (inactive).
Turning to `C/C=N\n1c(C)c(C#N)c(C#N)c1N`, the GI50 in assay [1], in assay [2], in assay [3], in assay [4], in assay [5] and in assay [6] was > 100 µM (inactive) throughout. Moreover, the GI50 in assay [7], in assay [8], in assay [9], in [10], in [11] and in assay [12] was > 100 µM (inactive) in each case. The GI50 in assay [13], in [14], in assay [15], in assay [16], in [17] and in assay [18] was > 100 µM (inactive) throughout. In assay [19], the GI50 was > 100 µM (inactive).
With `O=c1[nH]nc(Cc2ccccc2)n1/N=C\CC/C=N\n1c(Cc2ccccc2)n[nH]c1=O`, the GI50 in assay [1] is > 100 µM (inactive); in [2], 61.1 µM (inactive); in assay [3], 36.3 µM (inactive); in assay [4], 48.8 µM (inactive); in assay [5], 53.8 µM (inactive); in [6], 31.3 µM (inactive). Moreover, the GI50 in assay [7] was > 100 µM (inactive); in [8], 9.77 µM (inactive); in [9], 30 µM (inactive); in [10], > 100 µM (inactive); in [11], > 100 µM (inactive); in [12], 31.1 µM (inactive). Besides, the GI50 in assay [13] is 44.9 µM (inactive); in assay [14], 15.7 µM (inactive); in [15], > 100 µM (inactive); in assay [16], 14.3 µM (inactive); in assay [17] it was 12.5 µM (inactive); in assay [18], 19.4 µM (inactive). Also, the GI50 in assay [19] was 19 µM (inactive).
For `Cc1cc(-c2nc3cc(F)ccc3s2)ccc1N`, the GI50 in [1] was < 0.01 µM (active); in assay [2] it was 16.9 µM (inactive); in assay [3], > 100 µM (inactive); in assay [5] it was < 0.01 µM (active); in [6] it was 34.6 µM (inactive); in [7], 2 µM (inactive). The GI50 in assay [8] was < 0.0106 µM (active); in [9] it was < 0.01 µM (active); in [10], 42.8 µM (inactive); in [11], 4.06 µM (inactive); in assay [12] it was 34.2 µM (inactive); in [13], 39.2 µM (inactive). The GI50 in assay [14] was > 56.9 µM (inactive); in assay [15], 31 µM (inactive); in assay [16], < 0.01 µM (active); in assay [17] it was 1.95 µM (inactive); in assay [18] it was 75.9 µM (inactive); in assay [20], < 0.017 µM (active). Besides, the GI50 in [19] was 20.4 µM (inactive).
Take `CCOC(=O)c1c2c(n3ccccc13)C(=O)c1ccccc1C2=O`: the GI50 in [1] was 83.4 µM (inactive); in assay [2], > 100 µM (inactive); in [3], > 100 µM (inactive); in [4], > 100 µM (inactive); in [5], 2.55 µM (inactive); in [6], > 100 µM (inactive). Further, the GI50 in assay [7] is 61.4 µM (inactive); in assay [8], > 100 µM (inactive); in assay [9], 46 µM (inactive); in assay [10], > 100 µM (inactive); in assay [11] it was > 100 µM (inactive); in assay [12], > 100 µM (inactive). Also, the GI50 in assay [13] was > 100 µM (inactive); in [14], > 100 µM (inactive); in assay [15] it was > 100 µM (inactive); in assay [16], > 100 µM (inactive); in [18], > 100 µM (inactive); in assay [20], 3.52 µM (inactive). For the same molecule, the GI50 in assay [19] is 36.7 µM (inactive).
